Data published in patent US11052069B2, “Regimes of FXR agonists” (NOVARTIS AG, priority 2016, dated 2021).
Where two headings read alike, the source gives them in different places.

Columns and labels:
[1] = system: nonalcoholic steatohepatitis patients; conditions: long term administration; cited from earlier work
[2] = system: NASH in adults with liver fibrosis; conditions: human, in vivo; cited from earlier work
[3] = system: ANIT-induced cholestasis; experiment: Rat ANIT-induced cholestasis chronic treatment model; type: in vivo
Protocol: The efficacious concentration of Compound A was determined by PK/PD modeling from the rat ANIT-induced cholestasis chronic treatment model.

[4] = Human study SAD/MAD: safety, tolerability and plasma pharmacokinetics; type: in vivo
Protocol: (§1) Methods: SAD: Subjects received 5 to 750 mg of Compound A (7 cohorts: 6 active, 2 placebo); subjects from one cohort returned for a second dosing cycle with a high-fat meal (3 active, 1 placebo). MAD: Subjects received 5 to 250 mg of Compound A daily for 14 days (5 cohorts; 6 active, 2 placebo). All adverse events (AEs) were captured, and plasma levels of Compound A and PD biomarkers were determined pre- and post-dosing at various time points.

[5] = system: STAM mouse model of NASH; experiment: Compound A versus OCA in the STAM mouse model of NASH (Example 2); type: in vivo; conditions: Compound A 3 to 30 mg/kg vs OCA 25 mg/kg, 3 weeks
Excerpt: FIGS. 1 and 2 describe an in-vivo efficacy study of Compound A versus OCA in the STAM model of non-alcoholic steatohepatitis for a treatment period of 6-9 weeks. FIG. 2 refers to the results on NAFLD Activity Score; FIG. 1 to Sirius-red positive area.
NASH was induced for 6 weeks prior to treatment with the indicated compound (and dose). Then, they have been treated with the indicated compound for 3 weeks prior to sacrifice.
(§2) NAFLD Activity Score from H&E stained liver sections from STAM disease (NASH) animals treated for 3 weeks with the indicated compound or vehicle. Disease was initiated in animals for 6 weeks prior to dosing and then animals were treated with Vehicle-1, Vehicle-2, Compound A (3 to 30 mg/kg) or OCA (25 mg/kg) for 3 weeks. NAS was determined by the method of Kleiner (Kleiner et al. 2005).
as §2, with “Sirius red” for “NAFLD Activity Score from H&E”, “Quantitative analysis” for “NAS was determined by the method”, “Sirius Red sections were performed using ImageJ software.” for “Kleiner (Kleiner et al. 2005).”

[6] = system: FGF19, C4, total bile acid; experiment: Human study SAD/MAD: PD biomarkers; type: in vivo
Protocol: as §1

[7] = system: STAM model of non-alcoholic steatohepatitis; experiment: In vivo efficacy study in the STAM model of non-alcoholic steatohepatitis (Example 1); set-up: species or system C57BL/6 mice
Protocol: Steatohepatitis (Treatment period: 6 to 9 wks and 9-12 weeks)
The study involves 14-day-pregnant C57BL/6 mice. NASH was established by a single subcutaneous injection of 200 μg streptozotocin (Sigma, USA) after birth and feeding with a high fat diet (HFD, 57% kcal fat, CLEA Japan, Japan) ad libitum after 4 weeks of age (day 28±2). Randomization of NASH mice into groups of 12 mice at 6 weeks of age (day 42±2) and groups of 12 mice at 9 weeks of age (day 63±2), the day before the start of treatment, respectively. NASH animals were dosed from age 6-9 weeks (Study 1), or from age 9-12 weeks (Study 2) with either: vehicle, Compound A, OCA or Compound A. A non-disease vehicle-control group of was included in both Study 1 and Study 2. These animals were fed with a normal diet (CE-2; CLEA Japan) ad libitum.
PK samples were collected and stored at ≤−60° C. Animals were dosed according to the dosing schedule below. Each animal was sacrificed 5 hours after last morning dose on the last day of study treatment (the evening dose of cenicriviroc or vehicle […] that day due to sacrifice).
Measurements: • The following parameters were measured or monitored daily: individual body weight, survival, clinical signs and behavior of mice. • Pharmacokinetic measurements: PK samples were collected from 4 animals per time point per compound. PK samples were for Compound A at hours 1 and 24 on Day 6 (n=4 per timepoint) for both monotherapy and combination groups. PK samples were taken for Cenicriviroc on Day 10 at hours 2 and 12 (n=4 per timepoint) for both monotherapy and combination groups. Only one PK sample was collected per animal using the first 8 animals per group, per the schedule below:
Mice were sacrificed at 9 weeks of age (study 1) or at 12 weeks of age (study 2).
The following samples were collected: plasma, liver (fresh liver samples for gene expression analysis were collected at 5 hr post the last morning (AM) dose for each animal), stool. Organ weight was measured.
The following biochemical assays were performed: Non-fasting blood glucose in whole blood by Life Check (Eidia, Japan); serum ALT by FUJI DRI-CHEM (Fujifilm, Japan); serum triglyceride; serum MCP-1, RANTES (CCLS) and MIP-1a/MIP-1 quantification by a commercial ELISA kit; liver triglyceride by Triglyceride E-test kit (Wako, Japan); liver hydroxyproline quantification by hydrolysis method; histological analyses for liver section; HE staining and estimation of NAFLD Activity score; Sirius-red staining and estimation of fibrosis area (with and without perivascular space subtracted); oil red staining and estimation of fat deposition area; F4/80 immunohistochemistry staining and estimation of inflammation area; alpha-SMA immunohistochemistry staining and estimation of α-SMA positive area Gene expression assays using total RNA from the liver.
Statistical tests were performed using one-way ANOVA followed by Dunnett's test and the Mann-Whitney test, as appropriate, for the multiple group comparisons. P values <0.05 are considered statistically significant.

[8] = system: PBC; conditions: in vivo; cited from earlier work

CC[C@H]1[C@@H](O)[C@@H]2[C@H](CC[C@]3(C)[C@@H]([C@H](C)CCC(=O)O)CC[C@@H]23)[C@@]2(C)CC[C@@H](O)C[C@@H]12 [OCA, Obeticholic acid]
Safety concerns [1]: can be associated with pruritus, as well as with increased LDL cholesterol

CCCCOCCOc1ccc(-c2ccc3c(c2)/C=C(/C(=O)Nc2ccc([S@@+]([O-])Cc4cncn4CCC)cc2)CCCN3CC(C)C)cc1 [cenicriviroc, (S,E)-8-(4-(2-butoxyethoxy)phenyl)-1-(2-methylpropyl)-N-(4-(((1-propyl-1H-imidazol-5-yl)methyl)sulfinyl)phenyl)-1,2,3,4-tetrahydrobenzo[b]azocine-5-carboxamide]
Adverse effects [2]: can induce fatigue or diarrhea in a small part of the patients | Fibrosis [2]: reduction of fibrosis | Improvement of NAS [2]: no significant impact

Cn1nc(C(=O)N(Cc2ccccc2)Cc2ccc(C(=O)O)cc2)c2c1-c1cc(Cl)ccc1OC2 [Compound A, 4-((N-benzyl-8-chloro-1-methyl-1,4-dihydrochromeno[4,3-c]pyrazole-3 carboxamido)methyl)benzoic acid]
ALT reduction ([3]; 1.5 mg/kg): 75% | AST reduction ([3]; 1.5 mg/kg): 80% | GGT reduction ([3]; 1.5 mg/kg): 85% | ANIT-induced histologic alterations in the liver ([3]; rat, in vivo): reduced the ANIT-induced histologic alterations in the liver | accumulation ratio ([4]; MAD): mild | Steady-state reached ([4]; MAD, daily for 14 days): ≤ 5 days | AUC decrease ([4]; SAD, with high-fat meal): 26% | Cmax decrease ([4]; SAD, with high-fat meal): 58% | Severe drug-related AEs ([4]; any cohort): No severe drug-related AEs were reported | Safety and pharmacological activity ([4]; daily doses of 5 mg to 750 mg): safe and pharmacological active | SAEs attributed ([4]; daily doses up to 250 mg for 14 days): No SAEs have been attributed | Tmax ([4]; human, plasma, oral, SAD, with high-fat meal, read-out: median Tmax): 4 h | Cmax ([4]; human, plasma, oral, SAD, 5-750 mg doses): 0.177 to 12.7 µg/mL | half-life ([4]; human, plasma, oral, SAD, 5-750 mg doses, read-out: mean t1/2): 11.7 to 23.5 h | Tmax ([4]; human, plasma, oral, SAD, 5-750 mg doses, read-out: median plasma Tmax): 1.75 to 3 h | Tolerability ([4]; maximum doses tested (750 mg SAD and 250 mg MAD)): well tolerated | Reduction of fibrosis [5]: to a greater extent than OCA | Reduction of hepatic steatosis [5]: to a greater extent than OCA | Reduction of hepatocellular ballooning [5]: to a greater extent than OCA | Reduction of lobular inflammation [5]: to a greater extent than OCA | plasma FGF19 levels ([6]; MAD, Day 14): dose-dependent increase | plasma FGF19 median Cmax ([6]; MAD, Day 14, 250 mg): 979 pg/mL | serum C4 levels ([6]; MAD, similar dose range): decline | total bile acid (TBA) levels ([6]; MAD, similar dose range): decline | FGF19 with increasing doses ([6]; doses even beyond 250 mg): continues to rise | Serum FGF15 levels ([6]; in vivo): increased with Compound A treatment in a dose-dependent manner | Ballooning, NAS (mean +/− SD) ([7]; Study 1): 1.3 ± 0.8 | Ballooning, Score 0 (number of animals/group) ([7]; Study 1): 2 | Ballooning, Score 1 (number of animals/group) ([7]; Study 1): 3 | Ballooning, Score 2 (number of animals/group) ([7]; Study 1): 5 | Fibrosis, NAS (mean +/− SD) ([7]; Study 1): 0.51 ± 0.25 | Inflammatory infiltrates, Score 0 (number of animals/group) ([7]; Study 1): 7 | Inflammatory infiltrates, Score 1 (number of animals/group) ([7]; Study 1): 2 | Inflammatory infiltrates, Score 2 (number of animals/group) ([7]; Study 1): 1 | Inflammatory infiltrates, Score 3 (number of animals/group) ([7]; Study 1): 0 | NAS (mean +/− SD) ([7]; Study 1, dosed from age 6-9 weeks): 2.7 ± 1.1 | Ballooning, NAS (mean +/− SD) ([7]; Study 2): 0.7 ± 0.8 | Ballooning, Score 0 (number of animals/group) ([7]; Study 2): 5 | Ballooning, Score 1 (number of animals/group) ([7]; Study 2): 3 | Ballooning, Score 2 (number of animals/group) ([7]; Study 2): 2 | Fibrosis, NAS (mean +/− SD) ([7]; Study 2): 0.55 ± 0.32 | Inflammatory infiltrates, Score 0 (number of animals/group) ([7]; Study 2): 3 | Inflammatory infiltrates, Score 1 (number of animals/group) ([7]; Study 2): 1 | Inflammatory infiltrates, Score 2 (number of animals/group) ([7]; Study 2): 4 | Inflammatory infiltrates, Score 3 (number of animals/group) ([7]; Study 2): 2 | NAS (mean +/− SD) ([7]; Study 2, dosed from age 9-12 weeks): 2.7 ± 1.1 | Ballooning compared with the STAM-Vehicle group ([7]; both studies): trend for the reduction of ballooning | Fibrosis area compared with the STAM-Vehicle group ([7]; both studies): trend for the reduction of the fibrosis area | Inflammatory infiltrates compared with the STAM-Vehicle group ([7]; both studies 1 and 2): significant reduction of Inflammatory infiltrates | NAS compared with the STAM-Vehicle group ([7]; both studies 1 and 2): significant reduction in NAS

C[C@H](CCC(=O)O)[C@H]1CC[C@H]2[C@@H]3[C@@H](O)C[C@@H]4C[C@H](O)CC[C@]4(C)[C@H]3CC[C@]12C [UDCA, Ursodeoxycholic acid]
population that does not respond [8]: 30-40%
